Consider 20 compounds from patent publication US20250215012A1, “IKZF2 DEGRADERS AND USES THEREOF” (REGENTS OF THE UNIVERSITY OF MICHIGAN, priority 2022, published 2025).

Test [1] has as its target GST-tagged wild-type human CRBN protein (Homo sapiens (Human), UniProt Q96SW2). The test is described as follows: Cereblon Binding Assay (Cisbio Cereblon Binding Kit, TR-FRET). Conditions: about 3 hours at room temperature. Here is the method: The binding to cereblon (CRBN) is determined using the Cereblon Binding Kit (Cisbio, #64BDCRBNPEG) following the manufacturer's instruction. Briefly, serially diluted compounds are incubated with GST-tagged wild-type human CRBN protein, XL665-labelled Thalidomide and Europium Cryptate labelled GST antibody.
The binding to cereblon (CRBN) was determined using the Cereblon Binding Kit (Cisbio, #64BDCRBNPEG) following the manufacturer's instruction. Briefly, serially diluted compounds were incubated with GST-tagged wild-type human CRBN protein, XL665-labelled Thalidomide and Europium Cryptate labelled GST antibody at room temperature for about 3 hours.
For orientation: TR-FRET usually uses a lanthanide donor and a delayed reading to cut background.

The target in a further test is IKZF2 (Homo sapiens (Human), UniProt Q96SW2+Q9UKS7). The test is described as follows: IKZF2 HiBiT Assay (Jurkat-IKZF2-HiBiT cell line). The test is classed as cell-based. Conditions: Jurkat-IKZF2-HiBiT cells, 24 hours; for DC50: read-out: HiBit assay degradation analysis DC50; for Dmax: read-out: HiBit assay degradation analysis Dmax. Summed up: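 IKZF2 degradation was assessed as HiBiT luminescence in Jurkat-IKZF2-HiBiT cells, using lytic detection after 24 h of compound treatment at 37 °C, 5% CO2.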
For orientation: With HiBiT, luminescence reflects the tagged protein that the partner subunit can reach.

Each structure is given as a SMILES string.

GST-tagged wild-type human CRBN protein, sequence (Q96SW2 whole entry): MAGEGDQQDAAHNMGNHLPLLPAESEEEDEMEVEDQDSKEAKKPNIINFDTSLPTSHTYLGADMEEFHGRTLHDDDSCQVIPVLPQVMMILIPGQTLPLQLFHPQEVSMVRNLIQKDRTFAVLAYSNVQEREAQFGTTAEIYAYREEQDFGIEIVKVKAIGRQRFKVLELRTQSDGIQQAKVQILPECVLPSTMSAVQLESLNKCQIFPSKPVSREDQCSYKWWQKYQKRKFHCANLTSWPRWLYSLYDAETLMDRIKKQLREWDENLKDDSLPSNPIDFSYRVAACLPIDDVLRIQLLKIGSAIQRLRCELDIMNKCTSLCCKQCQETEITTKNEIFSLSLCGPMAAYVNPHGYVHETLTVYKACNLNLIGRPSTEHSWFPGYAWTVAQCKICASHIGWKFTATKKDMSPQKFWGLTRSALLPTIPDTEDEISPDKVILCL
IKZF2, sequence (Q9UKS7 whole entry): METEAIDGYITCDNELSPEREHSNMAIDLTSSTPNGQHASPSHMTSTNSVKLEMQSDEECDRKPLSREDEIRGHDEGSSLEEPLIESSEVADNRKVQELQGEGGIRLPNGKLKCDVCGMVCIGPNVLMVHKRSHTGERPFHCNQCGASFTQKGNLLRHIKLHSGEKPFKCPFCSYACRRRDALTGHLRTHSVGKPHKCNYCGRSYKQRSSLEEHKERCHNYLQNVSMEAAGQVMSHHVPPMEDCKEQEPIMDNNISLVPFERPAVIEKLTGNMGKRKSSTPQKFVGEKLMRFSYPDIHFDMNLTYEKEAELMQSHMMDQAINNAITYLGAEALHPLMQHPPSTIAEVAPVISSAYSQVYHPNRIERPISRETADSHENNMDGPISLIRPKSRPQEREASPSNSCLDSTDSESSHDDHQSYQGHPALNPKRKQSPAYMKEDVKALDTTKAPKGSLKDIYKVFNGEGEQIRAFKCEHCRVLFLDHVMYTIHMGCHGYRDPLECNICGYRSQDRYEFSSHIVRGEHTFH
IKZF2, sequence (Q96SW2 whole entry): as the sequence (Q96SW2 whole entry) above
IKZF2, sequence (Q16531 whole entry partner): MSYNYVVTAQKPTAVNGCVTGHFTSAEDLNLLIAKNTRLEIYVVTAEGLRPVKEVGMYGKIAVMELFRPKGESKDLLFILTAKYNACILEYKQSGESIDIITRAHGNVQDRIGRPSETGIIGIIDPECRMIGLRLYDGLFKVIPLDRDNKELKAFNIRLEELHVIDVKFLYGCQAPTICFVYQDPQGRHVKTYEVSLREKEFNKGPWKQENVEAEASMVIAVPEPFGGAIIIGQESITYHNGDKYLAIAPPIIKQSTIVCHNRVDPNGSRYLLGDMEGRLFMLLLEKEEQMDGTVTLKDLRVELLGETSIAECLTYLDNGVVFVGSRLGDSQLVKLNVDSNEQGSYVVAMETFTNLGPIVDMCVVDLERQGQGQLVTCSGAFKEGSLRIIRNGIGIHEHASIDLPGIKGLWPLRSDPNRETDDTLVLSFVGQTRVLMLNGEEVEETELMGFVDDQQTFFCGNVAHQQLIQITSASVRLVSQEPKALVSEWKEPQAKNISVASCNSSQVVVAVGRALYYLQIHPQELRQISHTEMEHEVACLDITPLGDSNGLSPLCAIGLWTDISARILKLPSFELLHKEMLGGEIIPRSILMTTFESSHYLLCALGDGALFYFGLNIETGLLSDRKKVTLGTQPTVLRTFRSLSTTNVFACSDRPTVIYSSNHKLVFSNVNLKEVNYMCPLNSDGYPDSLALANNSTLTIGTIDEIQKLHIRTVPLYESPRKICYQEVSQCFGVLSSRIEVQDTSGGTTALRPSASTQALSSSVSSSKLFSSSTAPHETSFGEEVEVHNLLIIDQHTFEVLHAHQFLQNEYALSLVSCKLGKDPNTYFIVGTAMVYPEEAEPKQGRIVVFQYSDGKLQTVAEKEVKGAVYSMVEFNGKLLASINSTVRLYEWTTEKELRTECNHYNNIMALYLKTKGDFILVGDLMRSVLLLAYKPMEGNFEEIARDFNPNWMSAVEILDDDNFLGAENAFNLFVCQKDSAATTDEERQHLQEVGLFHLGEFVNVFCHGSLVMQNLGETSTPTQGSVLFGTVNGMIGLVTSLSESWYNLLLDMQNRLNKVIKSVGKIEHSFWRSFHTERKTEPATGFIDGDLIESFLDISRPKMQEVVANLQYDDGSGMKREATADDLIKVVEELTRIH

With `O=C1CCC(N2Cc3c(ccc4c3OCC43CCN(Cc4cccc5[nH]ccc45)CC3)C2=O)C(=O)N1` (stereo not drawn) [Compound A87, 3-(1′-((1H-indol-4-yl)methyl)-6-oxo-6,8-dihydro-2H,7H-spiro[furo[2,3-e]isoindole-3,4′-piperidin]-7-yl)piperidine-2,6-dione], the IC50 in test [1] was 100 to 1000 nM. Besides, at IKZF2, the 50% degradation concentration (DC50) was below 50 nM and the Dmax is above 80%.
In turn, `O=C1CCC(N2Cc3c(ccc4c3OCC43CCN(Cc4cccc(CO)c4)CC3)C2=O)C(=O)N1` (stereo not drawn) [Compound A98, 3-(1′-(3-(hydroxymethyl)benzyl)-6-oxo-6,8-dihydro-2H,7H-spiro[furo[2,3-e]isoindole-3,4′-piperidin]-7-yl)piperidine-2,6-dione] had an IC50 in test [1] of 100 to 1000 nM. Also, on IKZF2, the DC50 lay within 50 to 200 nM and the maximal degradation (Dmax) fell in the range of 60 to 80%.
`Cn1cc(-c2cccc(CN3CCC4(CC3)COc3c4ccc4c3CN(C3CCC(=O)NC3=O)C4=O)c2)cn1` (stereo not drawn) [Compound A105, 3-(1′-(3-(1-methyl-1H-pyrazol-4-yl)benzyl)-6-oxo-6,8-dihydro-2H,7H-spiro[furo[2,3-e]isoindole-3,4′-piperidin]-7-yl)piperidine-2,6-dione] returned an IC50 in test [1] of 100 to 1000 nM. Further, at IKZF2, the DC50 was below 50 nM and the Dmax fell in the range of 60 to 80%.
For `O=C1CCC(N2Cc3c(ccc4c3OCC43CCN(Cc4ccc5ccoc5c4)CC3)C2=O)C(=O)N1` (stereo not drawn) [Compound A116, 3-(1′-(benzofuran-6-ylmethyl)-6-oxo-6,8-dihydro-2H,7H-spiro[furo[2,3-e]isoindole-3,4′-piperidin]-7-yl)piperidine-2,6-dione], in that order: 100 to 1000 nM, below 50 nM and 60 to 80%.
In the same order, the values of `O=C1CCC(N2Cc3c(ccc4c3OCC43CCN(Cc4ccc5c(c4)C(=O)NC5)CC3)C2=O)C(=O)N1` (stereo not drawn) [Compound A122, 3-(6-oxo-1′-((3-oxoisoindolin-5-yl)methyl)-6,8-dihydro-2H,7H-spiro[furo[2,3-e]isoindole-3,4′-piperidin]-7-yl)piperidine-2,6-dione] are 100 to 1000 nM, 50 to 200 nM and 60 to 80%.
Consider `O=C1CCC(N2Cc3c(ccc4c3OCC43CCN(Cc4cccc(-n5cncn5)c4)CC3)C2=O)C(=O)N1` (stereo not drawn) [Compound A124, 3-(1′-(3-(1H-1,2,4-triazol-1-yl)benzyl)-6-oxo-6,8-dihydro-2H,7H-spiro[furo[2,3-e]isoindole-3,4′-piperidin]-7-yl)piperidine-2,6-dione], for which, in test [1], the IC50 fell in the range of 100 to 1000 nM. At IKZF2, the DC50 fell in the range of 200 to 500 nM and the Dmax was 40 to 60%.
In the same order, the values of `O=C1CCC(N2Cc3c(ccc4c3OCC43CCN(Cc4cccc(-c5cnco5)c4)CC3)C2=O)C(=O)N1` (stereo not drawn) [Compound A125, 3-(1′-(3-(oxazol-5-yl)benzyl)-6-oxo-6,8-dihydro-2H,7H-spiro[furo[2,3-e]isoindole-3,4′-piperidin]-7-yl)piperidine-2,6-dione] are 100 to 1000 nM, below 50 nM and 60 to 80%.
For `O=C1CCC(N2Cc3c(ccc4c3OCC43CCN(Cc4cccc(Cn5cccn5)c4)CC3)C2=O)C(=O)N1` (stereo not drawn) [Compound A126, 3-(1′-(3-((1H-pyrazol-1-yl)methyl)benzyl)-6-oxo-6,8-dihydro-2H,7H-spiro[furo[2,3-e]isoindole-3,4′-piperidin]-7-yl)piperidine-2,6-dione], the IC50 in test [1] lay within 100 to 1000 nM. At IKZF2, the DC50 lay within 200 to 500 nM and the Dmax lay in the range of 40 to 60%.
In the same order, the values of `O=C1CCC(N2Cc3c(ccc4c3OCC43CCN(Cc4cc(Br)cc5[nH]ncc45)CC3)C2=O)C(=O)N1` (stereo not drawn) [Compound A127, 3-(1′-((6-bromo-1H-indazol-4-yl)methyl)-6-oxo-6,8-dihydro-2H,7H-spiro[furo[2,3-e]isoindole-3,4′-piperidin]-7-yl)piperidine-2,6-dione] are 100 to 1000 nM, below 50 nM and 40 to 60%.
In the same order, the values of `O=C1CCC(N2Cc3c(ccc4c3OCC43CCN(Cc4cc(Cl)cc5[nH]ncc45)CC3)C2=O)C(=O)N1` (stereo not drawn) [Compound A128, 3-(1′-((6-chloro-1H-indazol-4-yl)methyl)-6-oxo-6,8-dihydro-2H,7H-spiro[furo[2,3-e]isoindole-3,4′-piperidin]-7-yl)piperidine-2,6-dione] are 100 to 1000 nM, 50 to 200 nM and 40 to 60%.
For `O=C1CCC(N2Cc3c(ccc4c3OCC43CCN(Cc4ccc5cc[nH]c5c4)CC3)C2=O)C(=O)N1` (stereo not drawn) [Compound A129, 3-(1′-((1H-indol-6-yl)methyl)-6-oxo-6,8-dihydro-2H,7H-spiro[furo[2,3-e]isoindole-3,4′-piperidin]-7-yl)piperidine-2,6-dione], in that order: 10 to 100 nM, below 50 nM and 60 to 80%.
Take `Cn1ccc2ccc(CN3CCC4(CC3)COc3c4ccc4c3CN(C3CCC(=O)NC3=O)C4=O)cc21` (stereo not drawn) [Compound A130, 3-(1′-((1-methyl-1H-indol-6-yl)methyl)-6-oxo-6,8-dihydro-2H,7H-spiro[furo[2,3-e]isoindole-3,4′-piperidin]-7-yl)piperidine-2,6-dione]: the IC50 in test [1] lay within 100 to 1000 nM. At IKZF2, the DC50 was below 50 nM and the Dmax lay in the range of 60 to 80%.
For `O=C1CCC(N2Cc3c(ccc4c3OCC43CCN(Cc4ccc5c(c4)NC(=O)C5)CC3)C2=O)C(=O)N1` (stereo not drawn) [Compound A131, 3-(6-oxo-1′-((2-oxoindolin-6-yl)methyl)-6,8-dihydro-2H,7H-spiro[furo[2,3-e]isoindole-3,4′-piperidin]-7-yl)piperidine-2,6-dione], in that order: 100 to 1000 nM, 50 to 200 nM and 60 to 80%.
For `O=C1CCC(N2Cc3c(ccc4c3OCC43CCN(Cc4cccc(-c5cccnc5)c4)CC3)C2=O)C(=O)N1` (stereo not drawn) [Compound A132, 3-(6-oxo-1′-(3-(pyridin-3-yl)benzyl)-6,8-dihydro-2H,7H-spiro[furo[2,3-e]isoindole-3,4′-piperidin]-7-yl)piperidine-2,6-dione], in that order: 100 to 1000 nM, below 50 nM and 60 to 80%.
For `O=C1CCC(N2Cc3c(ccc4c3OCC43CCN(Cc4cccc(-c5ccncc5)c4)CC3)C2=O)C(=O)N1` (stereo not drawn) [Compound A133, 3-(6-oxo-1′-(3-(pyridin-4-yl)benzyl)-6,8-dihydro-2H,7H-spiro[furo[2,3-e]isoindole-3,4′-piperidin]-7-yl)piperidine-2,6-dione], in that order: 100 to 1000 nM, below 50 nM and 60 to 80%.
For the compound `Cn1ccc(-c2cccc(CN3CCC4(CC3)COc3c4ccc4c3CN(C3CCC(=O)NC3=O)C4=O)c2)n1` (stereo not drawn) [Compound A134, 3-(1′-(3-(1-methyl-1H-pyrazol-3-yl)benzyl)-6-oxo-6,8-dihydro-2H,7H-spiro[furo[2,3-e]isoindole-3,4′-piperidin]-7-yl)piperidine-2,6-dione], the IC50 in test [1] lay within 100 to 1000 nM. Further, on IKZF2, the DC50 was below 50 nM and the Dmax is 60 to 80%.
For `CCn1cc(-c2cccc(CN3CCC4(CC3)COc3c4ccc4c3CN(C3CCC(=O)NC3=O)C4=O)c2)cn1` (stereo not drawn) [Compound A145, 3-(1′-(3-(1-ethyl-1H-pyrazol-4-yl)benzyl)-6-oxo-6,8-dihydro-2H,7H-spiro[furo[2,3-e]isoindole-3,4′-piperidin]-7-yl)piperidine-2,6-dione], in that order: 10 to 100 nM, below 50 nM and 60 to 80%.
On to `O=C1CCC(N2Cc3c(ccc4c3OCC43CCN(Cc4cccc(-c5cc[nH]n5)c4)CC3)C2=O)C(=O)N1` (stereo not drawn) [Compound A160, 3-(1′-(3-(1H-pyrazol-3-yl)benzyl)-6-oxo-6,8-dihydro-2H,7H-spiro[furo[2,3-e]isoindole-3,4′-piperidin]-7-yl)piperidine-2,6-dione], for which the IC50 in test [1] lay within 10 to 100 nM. At IKZF2, the half-maximal degradation concentration (DC50) is below 50 nM and the Dmax was in the range of 60 to 80%.
For `O=C1CCC(N2Cc3c(ccc4c3OCC43CCN(Cc4cccc(-c5cnn(C6COC6)c5)c4)CC3)C2=O)C(=O)N1` (stereo not drawn) [Compound A161, 3-(1′-(3-(1-(oxetan-3-yl)-1H-pyrazol-4-yl)benzyl)-6-oxo-6,8-dihydro-2H,7H-spiro[furo[2,3-e]isoindole-3,4′-piperidin]-7-yl)piperidine-2,6-dione], in that order: 10 to 100 nM, below 50 nM and 60 to 80%.
For the compound `Cn1cc(-c2cccc(CN3CCC4(CC3)COc3c4ccc4c3CN([C@H]3CCC(=O)NC3=O)C4=O)c2)cn1` [Compound A170, (S)-3-(1′-(3-(1-methyl-1H-pyrazol-4-yl)benzyl)-6-oxo-6,8-dihydro-2H,7H-spiro[furo[2,3-e]isoindole-3,4′-piperidin]-7-yl)piperidine-2,6-dione], in test [1], the IC50 lay within 100 to 1000 nM. Besides, on IKZF2, the DC50 is below 50 nM and the Dmax lay in the range of 60 to 80%.

By IC50 is commonly meant the point on the concentration scale where inhibition reaches its midpoint. Higher therefore signals weaker potency. As usually defined, the DC50 is the midpoint of the concentration-degradation curve. Broadly, the Dmax is the largest share of the target that was removed.
